IC50 and inhibition data for 25 compounds are collected here from patent US20240083857A1, “2-Methyl-Quinazolines” (Bayer Pharma Aktiengesellschaft, priority 2017, published 2024).

The term IC50 denotes the concentration that inhibits the measured activity by half. As a reminder, the inhibition is the share of the control response that was lost under treatment.

The structures appear in SMILES notation. Where two headings read alike, the source gives them in different places.

The target of assay [1] is K-Ras^G12C : hSOS1 interaction (Homo sapiens, UniProt Q07889). The assay can be described thus: Biochemical assay 1: K-Ras^G12C interaction assay with hSOS1 (HTRF). The assay is classed as binding. The settings on record: for inhibition at 20 µM: read-out: Assay 1 (KRAS-SOS Interaction) activity expressed as % inhibition at 20 μM.
Assay [2] has as its target human SOS1 (nucleotide exchange of K-Ras^G12C) (Homo sapiens, UniProt Q07889). As to the kind of experiment: Biochemical assay 2: K-Ras^G12C activation assay by hSOS1 at high GTP concentration (HTRF). Conditions: for inhibition at 20 µM: read-out: Assay 2 (KRAS-Activation by SOS high GTP) activity expressed as % inhibition at 20 μM. In general terms: In TR-FRET formats the signal depends on donor and acceptor labels being close together.

Assay [3] concerns the target human SOS1 (loading of human K-Ras^G12C-GDP with fluorescent GTP-analog) (Homo sapiens, UniProt Q07889). The assay can be described thus: Biochemical assay 3: K-Ras^G12C activation assay by hSOS1 (HTRF). Conditions: for inhibition at 20 µM: read-out: Assay 3 (KRAS-Activation by SOS no GTP) activity expressed as % inhibition at 20 μM.
Setting [4] is: read-out: Assay 1 (KRAS-SOS Interaction) activity expressed as IC50.
Where [5] appears, read: high GTP, read-out: Assay 2 (KRAS-Activation by SOS high GTP) activity expressed as IC50.
Where [6] appears, read: no GTP, read-out: Assay 3 (KRAS-Activation by SOS no GTP) activity expressed as IC50.

As for `COc1cc2nc(C)nc(N[C@H](C)c3cccc(/C=C/C4CCCCC4)c3)c2cc1OC` [Example 90, N-[(1R)-1-{3-[(E)-2-cyclohexylethenyl]phenyl}ethyl]-6,7-dimethoxy-2-methylquinazolin-4-amine], the IC50 in assay [1] (setting [4]) is 11000 nM. Further, the inhibition at 20 µM was determined as 46% in assay [2] (high GTP) and 33% in assay [3] (no GTP).

For `COc1ncc(-c2ccc([C@H](C)Nc3nc(C)nc4cc(OC)c(OC)cc34)s2)cn1` (racemic) [Example 172, 6,7-dimethoxy-N-{1-[5-(2-methoxypyrimidin-5-yl)thiophen-2-yl]ethyl}-2-methylquinazolin-4-amine], the IC50 in assay [1] (setting [4]) was 4070 nM; in assay [2] (setting [5]), 7330 nM; in assay [3] (setting [6]) it was 9190 nM.

As to `COc1cc2nc(C)nc(NC(C)c3ccc(-c4ccccc4CNCC(N)=O)s3)c2cc1OC` (stereo not drawn) [Example 279, 2-[2-(5-{1-[(6,7-dimethoxy-2-methylquinazolin-4-yl)amino]ethyl}thiophen-2-yl)-benzyl]glycinamide], the IC50 in assay [1] (setting [4]) was 176 nM; in assay [2] (setting [5]), 168 nM; in assay [3] (setting [6]), 160 nM.

Take `COc1cc2nc(C)nc(N[C@H](C)c3cccc(-c4ccccc4S(=O)(=O)N(C)C)c3)c2cc1OC` [Example 101, 3′-{(1R)-1-[(6,7-dimethoxy-2-methylquinazolin-4-yl)amino]ethyl}-N,N-dimethylbiphenyl-2-sulfonamide]: the IC50 in assay [1] (setting [4]) was found to be 715 nM; in assay [2] (setting [5]), 897 nM; in assay [3] (setting [6]) it was 1800 nM.

Turning to `COc1cc2nc(C)nc(N[C@H](C)c3cccc(-c4ccccc4NC(C)=O)c3)c2cc1OC` [Example 119, N-(3′-{(1R)-1-[(6,7-dimethoxy-2-methylquinazolin-4-yl)amino]ethyl}biphenyl-2-yl)acetamide], the IC50 in assay [1] (setting [4]) came to 858 nM; in assay [2] (setting [5]), 1280 nM; in assay [3] (setting [6]), 1480 nM.

As to `COc1cc2nc(C)nc(N[C@H](C)c3cccc(-c4cc5ccccc5n4C)c3)c2cc1OC` [Example 88, 6,7-dimethoxy-2-methyl-N-{(1R)-1-[3-(1-methyl-1H-indol-2-yl)phenyl]ethyl}quinazolin-4-amine], the IC50 came out at 3560 nM in assay [1] (setting [4]), 2560 nM in assay [2] (setting [5]) and 6180 nM in assay [3] (setting [6]).

For `COc1cc2nc(C)nc(N[C@@H](C)c3ccc(-c4ccc(C(=O)NCCN(C)C)cc4)s3)c2cc1OC` (racemic) [Example 142, 4-(5-{1-[(6,7-dimethoxy-2-methylquinazolin-4-yl)amino]ethyl}thiophen-2-yl)-N-[2-(dimethylamino)ethyl]benzamide], the values for the IC50 in assay [1] (setting [4]), in assay [2] (setting [5]) and in assay [3] (setting [6]) were 1010 nM, 1810 nM and 1020 nM, respectively.

For the compound `COc1cc2nc(C)nc(N[C@@H](C)c3ccc(-c4cc5ccccc5n4C)s3)c2cc1OC` (racemic) [Example 155, 6,7-dimethoxy-2-methyl-N-{1-[5-(1-methyl-1H-indol-2-yl)thiophen-2-yl]ethyl}quinazolin-4-amine], the results for the IC50 in assay [1] (setting [4]), in assay [2] (setting [5]) and in assay [3] (setting [6]) were 992 nM, 1470 nM and 1640 nM, respectively.

Consider `COc1cc2nc(C)nc(N[C@@H](C)c3ccc(-c4ccccc4S(=O)(=O)N(C)C)s3)c2cc1OC` (racemic) [Example 169, 2-(5-{1-[(6,7-dimethoxy-2-methylquinazolin-4-yl)amino]ethyl}thiophen-2-yl)-N,N-dimethylbenzenesulfonamide], for which the IC50 in assay [1] (setting [4]) worked out at 2160 nM; in assay [2] (setting [5]) it was 3700 nM; in assay [3] (setting [6]), 4530 nM.

For the compound `COc1cc2nc(C)nc(N[C@H](C)c3cccc(-c4cnc(N)nc4)c3)c2cc1OC` [Example 62, N-{(1R)-1-[3-(2-aminopyrimidin-5-yl)phenyl]ethyl}-6,7-dimethoxy-2-methylquinazolin-4-amine], the IC50 in assay [1] (setting [4]) came out at 1260 nM; in assay [2] (setting [5]) it was 2770 nM; in assay [3] (setting [6]) it was 2630 nM.

Turning to `COc1cc2nc(C)nc(NC(C)c3ccc(-c4ccc(C(F)(F)F)cc4CN(C)C)s3)c2cc1OC` (stereo not drawn) [Example 385, N-(1-(5-(2-((dimethylamino)methyl)-4-(trifluoromethyl)phenyl)thiophen-2-yl)ethyl)-6,7-dimethoxy-2-methylquinazolin-4-amine], the IC50 in assay [1] (E-notation values, unit inferred, read-out: Assay 1 (KRAS-SOS interaction) IC50) was 732 nM; in assay [2] (E-notation values, unit inferred, 50 μM GTP, read-out: Assay 2 (KRAS-Activation, high GTP) IC50), 329 nM; in assay [3] (E-notation values, unit inferred, read-out: Assay 3 (KRAS-Activation) IC50) it was 388 nM.

Consider `COc1cc2nc(C)nc(N[C@H](C)c3cccc(-c4cccc5cnccc45)c3)c2cc1OC` [Example 39, N-{(1R)-1-[3-(isoquinolin-5-yl)phenyl]ethyl}-6,7-dimethoxy-2-methylquinazolin-4-amine], for which the IC50 in assay [1] (setting [4]) is 1460 nM; in assay [2] (setting [5]), 1830 nM; in assay [3] (setting [6]) it was 3050 nM.

Take `COc1cc2nc(C)nc(N[C@H](C)c3cccc(-c4ccccc4OCc4ccccc4)c3)c2cc1OC` [Example 81, N-{(1R)-1-[2′-(benzyloxy)biphenyl-3-yl]ethyl}-6,7-dimethoxy-2-methylquinazolin-4-amine]: the values for the inhibition at 20 µM in assay [1], in assay [2] (high GTP) and in assay [3] (no GTP) were 42%, 33% and 24%, respectively.

On to `COc1cc2nc(C)nc(N[C@@H](C)c3ccc(-c4cncc(S(C)(=O)=O)c4)s3)c2cc1OC` (racemic) [Example 127], for which the IC50 in assay [1] (setting [4]) came to 17800 nM. Further, the inhibition at 20 µM in assay [2] (high GTP) is 44%; in assay [3] (no GTP) it was 42%.

Turning to `COc1cc2nc(C)nc(N[C@@H](C)c3ccc(-c4ccc(NC(=O)OC(C)(C)C)cc4)s3)c2cc1OC` (stereo in doubt) [Example 159, tert-butyl [4-(5-{1-[(6,7-dimethoxy-2-methylquinazolin-4-yl)amino]ethyl}thiophen-2-yl)phenyl]carbamate], the inhibition at 20 µM stood at 43% in assay [1], 27% in assay [2] (high GTP) and 35% in assay [3] (no GTP).

For `COc1cc2nc(C)nc(N[C@H](C)c3cccc(-c4ccc(N5CCOCC5)cc4)c3)c2cc1OC` [Example 79, 6,7-dimethoxy-2-methyl-N-{(1R)-1-[4′-(morpholin-4-yl)biphenyl-3-yl]ethyl}quinazolin-4-amine], the IC50 was 1550 nM in assay [1] (setting [4]), 937 nM in assay [2] (setting [5]) and 1650 nM in assay [3] (setting [6]).

For `Cc1nc(N[C@H](C)c2ccc(F)cc2)c2cc(Br)ccc2n1` [Example 31, 6-bromo-N-[(1R)-1-(4-fluorophenyl)ethyl]-2-methylquinazolin-4-amine], the results for the IC50 in assay [1] (setting [4]) and in assay [2] (setting [5]) were 8590 nM and 9510 nM, respectively. In assay [3] (no GTP), the inhibition at 20 µM is 49%.

In the case of `COc1cc2nc(C)nc(N[C@H](C)c3cccc(/C=C/c4ccccc4)c3)c2cc1OC` [Example 114, 6,7-dimethoxy-2-methyl-N-[(1R)-1-{3-[(E)-2-phenylethenyl]phenyl}ethyl]quinazolin-4-amine], the 50% inhibitory concentration (IC50) was 5280 nM in assay [1] (setting [4]), 2390 nM in assay [2] (setting [5]) and 9210 nM in assay [3] (setting [6]).

With `COc1cc2nc(C)nc(N[C@@H](C)c3ccc(-c4ccccc4)s3)c2cc1OC` (stereo in doubt) [Example 70, 6,7-dimethoxy-2-methyl-N-[1-(5-phenylthiophen-2-yl)ethyl]quinazolin-4-amine], the IC50 in assay [1] (setting [4]) stood at 6820 nM; in assay [2] (setting [5]), 8620 nM. Moreover, the inhibition at 20 µM in assay [3] (no GTP) came to 47%.

Regarding `CCC/C=C/c1ccc([C@H](C)Nc2nc(C)nc3cc(OC)c(OC)cc23)s1` (racemic) [Example 156, 6,7-dimethoxy-2-methyl-N-[1-{5-[(1E)-pent-1-en-1-yl]thiophen-2-yl}ethyl]quinazolin-4-amine], the IC50 in assay [1] (setting [4]) is 4120 nM; in assay [2] (setting [5]) it was 5760 nM; in assay [3] (setting [6]) it was 10800 nM.

In the case of `COc1cc2nc(C)nc(N[C@@H](C)c3ccc(-c4ccc(C(C)=O)s4)s3)c2cc1OC` (racemic) [Example 162, 1-(5′-{1-[(6,7-dimethoxy-2-methylquinazolin-4-yl)amino]ethyl}-2,2′-bithiophen-5-yl)ethanone], the IC50 in assay [1] (setting [4]) came out at 8760 nM; in assay [2] (setting [5]), 11600 nM; in assay [3] (setting [6]), 16000 nM.

For `COc1cc2nc(C)nc(N[C@H](C)c3cccc(-c4ccc(NC(=O)OC(C)(C)C)cc4)c3)c2cc1OC` [Example 92, tert-butyl (3′-{(1R)-1-[(6,7-dimethoxy-2-methylquinazolin-4-yl)amino]ethyl}biphenyl-4-yl)carbamate], the results for the IC50 in assay [1] (setting [4]), in assay [2] (setting [5]) and in assay [3] (setting [6]) were 4700 nM, 3670 nM and 9260 nM, respectively.

With `COc1cc2nc(C)nc(N[C@H](C)c3cccc(-c4cccc(C(F)(F)F)c4)c3)c2cc1OC` [Example 100, 6,7-dimethoxy-2-methyl-N-{(1R)-1-[3′-(trifluoromethyl)biphenyl-3-yl]ethyl}quinazolin-4-amine], the half-inhibitory concentration (IC50) was 5350 nM in assay [1] (setting [4]), 4510 nM in assay [2] (setting [5]) and 8520 nM in assay [3] (setting [6]).

Consider `CCOCc1ccccc1-c1cccc([C@@H](C)Nc2nc(C)nc3cc(OC)c(OC)cc23)c1` [Example 64, N-{(1R)-1-[2′-(ethoxymethyl)biphenyl-3-yl]ethyl}-6,7-dimethoxy-2-methylquinazolin-4-amine], for which the IC50 in assay [1] (setting [4]) was 1400 nM; in assay [2] (setting [5]), 1960 nM; in assay [3] (setting [6]), 2210 nM.

With `COc1cc2nc(C)nc(N[C@H](C)c3cccc(-c4ccc(S(C)(=O)=O)cc4)c3)c2cc1OC` [Example 82, 6,7-dimethoxy-2-methyl-N-{(1R)-1-[4′-(methylsulfonyl)biphenyl-3-yl]ethyl}quinazolin-4-amine], the IC50 turned out to be 598 nM in assay [1] (setting [4]), 857 nM in assay [2] (setting [5]) and 1000 nM in assay [3] (setting [6]).
